From patent US20090068290A1, “BIFEPRUNOX DOSES FOR TREATING SCHIZOPHRENIA” (priority 2006, published 2009)

Experiments:
[1] = tested on: adult subjects with schizophrenia; experiment: PANSS total score, Clinical Study One (6-week, risperidone-referenced); assay type: in vivo, human; settings: for Change from Baseline in PANSS Total Score, Mean (S.D.) / Change from Baseline in PANSS Total Score, Median / PANSS Total Score, Trt Effect (bifeprunox minus placebo mean change from Baseline): ITT; for PANSS Total Score, Trt Effect (bifeprunox minus placebo mean change from Baseline): ANCOVA
Experimental: There were five treatment groups in this study. […] Study medication was administered once daily. After Baseline measurements were performed, the titration phase was begun. Bifeprunox treated subjects were titrated up to 5 mg, 10 mg or 20 mg according to a standardized titration schedule (Day 1: 0.125 mg, Day 2: 0.25 mg, Day 3: 0.5 mg, Day 4: 1.0 mg, Day 5: 2.0 mg, Day 6: 5.0 mg, Day 7: 10.0 mg, Day 8: 20 mg). When the assigned dose was reached, subjects were maintained at that dose for the remainder of the six-week treatment period.
Test Product. Dose and Mode of Administration: Bifeprunox tablets, total daily dose 0.125 mg to 20 mg administered orally using a once daily dosing regimen.
The change in the Positive and Negative Symptom Scale (PANSS) total score, from baseline to endpoint, was the primary outcome measure. Secondary efficacy measures included: PANSS positive, PANSS negative, PANSS general psychopathology (GPP) score, PANSS-derived Brief Psychiatric Rating Scale (BPRS) score, Clinical Global Impressions-Severity of Illness (CGI-S), CGI-Improvement (CGI-I) scores, and responder rates. Safety and tolerability evaluations included extrapyramidal symptoms (EPS), weight gain, lipid profile, and serum prolactin.

[2] = tested on: adult subjects with schizophrenia; experiment: Calgary Depression Scale for Schizophrenia (CDSS), Clinical Study Two; assay type: in vivo, human; settings: LOCF
Experimental: Rating scale assessments were performed weekly, except for week 5, to measure the change from baseline to endpoint of the PANSS total score. Other assessments included: PANSS positive symptom subscale score, PANSS negative symptom subscale score, PANSS general pschopathology subscale score, BPRS total score, BPRS psychosis score, the CGI-S score, the CGI-I score, responder rates based on the PANSS total score, and the Calgary Depression Scale for Schizophrenia (CDSS). […]
Subjects who completed this study had the option to continue in the long-term. […] Risperidone-treated subjects were titrated from 2 mg to 6 mg daily over a three-day period and were subsequently maintained at 6 mg/day for the remainder of the treatment period. […] Blood samples were also obtained at Screening/Baseline, Week 3, and Week 6 for clinical laboratory assessments.

[3] = Bifeprunox 10 mg, Endpoint LOCF
[4] = Bifeprunox 20 mg, Endpoint LOCF

For `O=c1[nH]c2cccc(N3CCN(Cc4cccc(-c5ccccc5)c4)CC3)c2o1` [Bifeprunox, 7-[4-([1,1′-biphenyl]-3-ylmethyl)-1-piperazinyl]-2(3H)-benzoxazolone], the “Change from Baseline in PANSS Total Score, Mean (S.D.)” value (shortened to “Change from Baseline … (S.D.)”) ([1]; Bifeprunox 5 mg, Endpoint LOCF) was −9.7 (17.5), the “Change from Baseline in PANSS Total Score, Median” value ([1]; Bifeprunox 5 mg, Endpoint LOCF) was −8 and the “PANSS Total Score, Trt Effect (bifeprunox minus placebo mean change from Baseline)” value ([1]; Bifeprunox 5 mg, Endpoint LOCF) was −4.1. For the same compound, the “Change from Baseline … (S.D.)” value ([1]; Bifeprunox 5 mg, Week 1, LOCF) was −3.9 (13.1), the “Change from Baseline in PANSS Total Score, Median” value ([1]; Bifeprunox 5 mg, Week 1, LOCF) was −4 and the “Change from Baseline … (S.D.)” value ([1]; Bifeprunox 5 mg, Week 2, LOCF) was −6.7 (14.9). The “Change from Baseline in PANSS Total Score, Median” value ([1]; Bifeprunox 5 mg, Week 2, LOCF) was −7, the “Change from Baseline … (S.D.)” value ([1]; Bifeprunox 5 mg, Week 3, LOCF) was −7.7 (16.1) and the “Change from Baseline in PANSS Total Score, Median” value ([1]; Bifeprunox 5 mg, Week 3, LOCF) was −7. For the same compound, the “Change from Baseline … (S.D.)” value ([1]; Bifeprunox 5 mg, Week 4, LOCF) was −8.7 (17.1), the “Change from Baseline in PANSS Total Score, Median” value ([1]; Bifeprunox 5 mg, Week 4, LOCF) was −7 and the “Change from Baseline … (S.D.)” value [1, 3] was −5.0 (18.3). The “Change from Baseline in PANSS Total Score, Median” value [1, 3] was −4, the “PANSS Total Score, Trt Effect (bifeprunox minus placebo mean change from Baseline)” value [1, 3] was 0.6 and the “Change from Baseline … (S.D.)” value ([1]; Bifeprunox 10 mg, Week 1, LOCF) was −2.9 (11.7). For the same compound, the “Change from Baseline in PANSS Total Score, Median” value ([1]; Bifeprunox 10 mg, Week 1, LOCF) was −1, the “Change from Baseline … (S.D.)” value ([1]; Bifeprunox 10 mg, Week 2, LOCF) was −4.2 (14.6) and the “Change from Baseline in PANSS Total Score, Median” value ([1]; Bifeprunox 10 mg, Week 2, LOCF) was −3. The “Change from Baseline … (S.D.)” value ([1]; Bifeprunox 10 mg, Week 3, LOCF) was −4.6 (17.4), the “Change from Baseline in PANSS Total Score, Median” value ([1]; Bifeprunox 10 mg, Week 3, LOCF) was −3 and the “Change from Baseline … (S.D.)” value ([1]; Bifeprunox 10 mg, Week 4, LOCF) was −4.1 (17.2). For the same compound, the “Change from Baseline in PANSS Total Score, Median” value ([1]; Bifeprunox 10 mg, Week 4, LOCF) was −5, the “Change from Baseline … (S.D.)” value [1, 4] was −11.3 (17.0) and the “Change from Baseline in PANSS Total Score, Median” value [1, 4] was −11. The “PANSS Total Score, Trt Effect (bifeprunox minus placebo mean change from Baseline)” value [1, 4] was −5.8, the “Change from Baseline … (S.D.)” value ([1]; Bifeprunox 20 mg, Week 1, LOCF) was −6.3 (11.5) and the “Change from Baseline in PANSS Total Score, Median” value ([1]; Bifeprunox 20 mg, Week 1, LOCF) was −5. For the same compound, the “Change from Baseline … (S.D.)” value ([1]; Bifeprunox 20 mg, Week 2, LOCF) was −9.0 (14.0), the “Change from Baseline in PANSS Total Score, Median” value ([1]; Bifeprunox 20 mg, Week 2, LOCF) was −8 and the “Change from Baseline … (S.D.)” value ([1]; Bifeprunox 20 mg, Week 3, LOCF) was −11.2 (14.5). The “Change from Baseline in PANSS Total Score, Median” value ([1]; Bifeprunox 20 mg, Week 3, LOCF) was −11, the “Change from Baseline … (S.D.)” value ([1]; Bifeprunox 20 mg, Week 4, LOCF) was −11.2 (15.9) and the “Change from Baseline in PANSS Total Score, Median” value ([1]; Bifeprunox 20 mg, Week 4, LOCF) was −11. The “superiority to placebo, primary efficacy endpoint (PANSS total score)” value ([1]; bifeprunox 5 mg, 6 weeks) was “did not show superiority to placebo”, the “improvement compared to placebo, any efficacy endpoint” value ([1]; bifeprunox 10 mg, 6 weeks) was “did not show statistically greater improvement for any efficacy endpoint” and the “efficacy compared to placebo (PANSS total and subscale scores)” value ([1]; bifeprunox 20 mg once daily, 6 weeks) was “effective in reducing both positive and negative symptoms of schizophrenia”. For the same compound, the “greater improvement from Baseline in PANSS total score compared with placebo” value ([1]; bifeprunox 20 mg, 6 weeks) was 5.8 point, the “reduction in the PANSS total score compared to placebo” value ([1]; bifeprunox 20 mg, 6 weeks (Example 4)) was “statistically significant (P<0.05) compared to placebo at Week 3 and Week 6/endpoint” and the “CDSS Total Score, Trt Effect” value ([2]; 30 mg versus placebo, Week 6/Endpoint) was −0.38. The “Change from Baseline in CDSS Total Score, Mean (SD)” value (“Change from Baseline … (SD)” for short) ([2]; 30 mg, Week 1) was −0.01 (2.90), the “Change from Baseline in CDSS Total Score, Median” value ([2]; 30 mg, Week 1) was 0.0 and the “Change from Baseline … (SD)” value ([2]; 30 mg, Week 2) was −0.51 (3.37). For the same compound, the “Change from Baseline in CDSS Total Score, Median” value ([2]; 30 mg, Week 2) was 0.0, the “Change from Baseline … (SD)” value ([2]; 30 mg, Week 3) was −0.51 (3.56) and the “Change from Baseline in CDSS Total Score, Median” value ([2]; 30 mg, Week 3) was 0.0. For the same compound, the “Change from Baseline … (SD)” value ([2]; 30 mg, Week 4) was −0.63 (3.48), the “Change from Baseline in CDSS Total Score, Median” value ([2]; 30 mg, Week 4) was 0.0 and the “Change from Baseline … (SD)” value ([2]; 30 mg, Week 6/Endpoint) was −0.66 (3.64). The “Change from Baseline in CDSS Total Score, Median” value ([2]; 30 mg, Week 6/Endpoint) was 0.0, the “CDSS Total Score, Trt Effect” value ([2]; 40 mg versus placebo, Week 6/Endpoint) was 0.29 and the “Change from Baseline … (SD)” value ([2]; 40 mg, Week 1) was −0.54 (2.56). The “Change from Baseline in CDSS Total Score, Median” value ([2]; 40 mg, Week 1) was 0.0, the “Change from Baseline … (SD)” value ([2]; 40 mg, Week 2) was −0.32 (2.95) and the “Change from Baseline in CDSS Total Score, Median” value ([2]; 40 mg, Week 2) was 0.0. The “Change from Baseline … (SD)” value ([2]; 40 mg, Week 3) was −0.44 (3.09).
